Legend:
[1] = Reactivity of fluorescence probe to nitric oxide (NOC13); type: physicochemical; details: 10 μM probe, NOC13 100 μM, pH 7.4, 37° C.
Description: (§1) In the following example, a compound wherein R^1 is 2-carboxyphenyl group, and R^2 is 4-aminophenyl group in the general formula (I) (hereinafter referred to as “APF”) and a compound wherein R^3 is 2-carboxyphenyl group, and R^4 is 4-hydroxyphenyl group in the general formula (II) (hereinafter referred to as “HPF”) were used. Each of HPF and APF is dissolved in dimethylformamide (DMF) to obtain a 10 mM solution, and then added with a 100 mM sodium phosphate buffer (pH 7.4) to obtain a final concentration of 10 μM, unless otherwise specifically mentioned.
(§2) Excitation spectra and fluorescence spectra were analyzed with Hitachi F4500. The slit width was 2.5 nm in both of the excitation spectra and fluorescence spectra. The photomultiplier voltage was 950 V. Unless otherwise specifically mentioned, excitation wavelength was 490 nm, fluorescence wavelength was 515 nm, and the measurement was performed at 37° C.
(§3) Reactivities of APF and HPF to various reactive species containing oxygen were studied. […] The measurement was performed with excitation wavelength at 500 nm and with fluorescence wavelength at 520 nm for DCFH.
A 10 μM fluorescence probe solution was put in a fluorescence cell, added with 1-hydroxy-2-oxo-3-(3-aminopropyl)-3-ethyl-1-triazine (NOC13; a final concentration of 100 μM), and was reacted for 30 minutes. […]

neutrophils = assay: Fluorescence imaging of PMA-stimulated neutrophils; type: cell-based, porcine; details: 10 μM probe, PMA 2 ng/mL, excitation 488 nm, emission 505-550 nm
Description: According to the method described in Wakeyama, H., Takeshige, K., Takayanagi, R., and Minakami S. (1982) Biochem. J. 205, 593-601 and Kakinuma, K., Kaneda, M., Chiba, T., and Ohnishi, T. (1986) J. Biol. Chem. 261, 9426-9432, neutrophils were obtained from 1.8 liters of porcine blood. Erythrocytes in the buffy coat collected from the blood were hemolyzed with a large volume of an ice-cooled 0.2% aqueous sodium chloride solution for […] and then the preparation was promptly mixed with an equal volume of a 1.6% aqueous sodium chloride solution to restore the isotonic condition. Neutrophils were separated from platelets and mononuclear cells by the Conrey-Ficoll method. The neutrophils were suspended in Krebs Ringer phosphate buffer (114 mM NaCl, 4.6 mM KCl, 2.4 mM MgSO4, 1.0 mM, CaCl2, 15 mM NaH2PO4/Na2HPO4, pH7.4).
The separated neutrophils were seeded onto a glass-bottomed dish. Then the cells were loaded with HPF or APF (10 μM) after incubation for 30 minutes at room temperature. These neutrophils were stimulated with 4β-phorbol-12-myristate-13-acetate (PMA)(2 ng/mL). Fluorescence imaging was measured twice in each experiment: one is before and the other is 10 minutes after the stimulation with PMA. […]

[2] = Reactivity of fluorescence probe to superoxide (KO2); type: physicochemical; details: 10 μM probe, KO2 100 μM, pH 7.4, 37° C.
Description: as §1, §2, §3
A 10 μM fluorescence probe solution was put in a fluorescence cell, added with KO2 (a final concentration of 100 μM), and was reacted for 30 minutes. Fluorescence intensities before the addition of KO2 and 30 minutes after the addition were measured.

[3] = Reactivity of fluorescence probe to hydrogen peroxide; type: physicochemical; details: 10 μM probe, H2O2 100 μM, pH 7.4, 37° C.
Description: as §1, §2, §3
A 10 μM fluorescence probe solution was put in a fluorescence cell, added with H2O2 (a final concentration of 100 μM), and was reacted for 30 minutes. Fluorescence intensities before the addition of H2O2 and 30 minutes after the addition were measured.

Myeloperoxidase (human) = assay: Myeloperoxidase/H2O2 system, fluorescence measurement of generated hypochlorite ion; type: biochemical; details: 10 μM probe, myeloperoxidase 11.2 nM, 150 mM NaCl, 37° C.
Description: as §1, §2
(A) By using a 100 mM sodium phosphate buffer (pH 7.4) containing 150 mM sodium chloride, a 10 μM HPF solution and a 10 μM APF solution were prepared. Myeloperoxidase (human) were added to these solutions to obtain a final concentration of 11.2 nM. Each of the solution was put in each fluorescence cell, and a change in the fluorescence intensity with passage of time was measured. The temperature of the solutions were set at 37° C. […]

[4] = Reactivity of fluorescence probe to singlet oxygen (EP-1); type: physicochemical; details: 10 μM probe, EP-1 100 μM, pH 7.4, 37° C.
Description: as §1, §2, §3
A 10 μM fluorescence probe solution was put in a fluorescence cell, added with 3-(1,4-dihydro-1,4-epidioxy-1-naphthyl)propionic acid (EP-1; a final concentration of 100 μM), and was reacted for 30 minutes. […]

[5] = Reactivity of fluorescence probe to hypochlorite ion (sodium hypochlorite); type: physicochemical; details: 10 μM probe, sodium hypochlorite 1.0 μM, pH 7.4, 37° C.
Description: as §1, §2, §3
A 10 μM fluorescence probe solution was put in a fluorescence cell, added with an aqueous sodium hypochlorite solution (a final concentration of 1.0 μM). Fluorescence intensities before and after the addition of an aqueous sodium hypochlorite solution were measured.

[6] = Reactivity of fluorescence probe to hydroxyl radical (H2O2 / ferrous perchlorate); type: physicochemical; details: 10 μM probe, H2O2 1 mM + ferrous perchlorate 100 μM, pH 7.4, room temperature
Description: as §1, §2, §3
A 10 μM fluorescence probe solution was added with an aqueous hydrogen peroxide solution (a final concentration of 1 mM), and further slowly added with an aqueous ferrous perchlorate (a final concentration of 100 μM). […]

Compound	Reactivity to nitric oxide (fluorescence intensity before and 30 minutes after addition) [1]	Fluorescence intensity of probe-loaded neutrophils before and 10 minutes after stimulation with PMA (neutrophils)	Reactivity to superoxide (fluorescence intensity before and 30 minutes after addition) [2]	Reactivity to hydrogen peroxide (fluorescence intensity before and 30 minutes after addition) [3]	Change in fluorescence intensity with time on addition of hydrogen peroxide (FIG. 1(A)) (Myeloperoxidase (human); H2O2 1 μM)	Increase in fluorescence intensity before and after addition of hydrogen peroxide (FIG. 1(B)) (Myeloperoxidase (human); H2O2 0.1-1.0 μM, 5 minutes)	Reactivity to singlet oxygen (fluorescence intensity before and 30 minutes after addition) [4]	Reactivity to hypochlorite ion (fluorescence intensity before and after addition) [5]	Reactivity to hydroxyl radical (fluorescence intensity before and after addition) [6]
Nc1ccc(Oc2ccc3c(-c4ccccc4C(=O)O)c4ccc(=O)cc-4oc3c2)cc1 [APF]	<1	a significant increase was observed in fluorescence intensity	6	<1	a significant increase in the fluorescence intensity was observed	fluorescence intensity was increased in a manner dependent on the concentration of the added hydrogen peroxide	9		
O=C(O)c1ccccc1C1c2cc(Cl)c(O)cc2Oc2cc(O)c(Cl)cc21 [DCFH, 2′,7′-dichlorodihydrofluorescein, reference compound]	150		67	190			26	86	7400
